Test results from US11413278B2, “Compounds and methods for promoting stress resistance” (priority 2015, dated 2022).
Where two headings read alike, the source gives them in different places.

How the values were obtained:
WI-38 cells [1] = assay: Propidium iodide (PI) cell-death imaging upon H2O2 stress; assay type: cell-based, human; conditions: for Assay 7: H2O2-resistant, at 10 uM, validated by propidium iodide (PI) cell-death imaging: w/H2O2, 3 hrs/4 hrs/5 hrs, YES/NO; for cytotoxicity at 10 µM: Homo sapiens, WI-38
WI-38 cells [2] = assay: CdCl2 (cadmium) resistance assay; assay type: cell-based, human; conditions: for fold induction at 10 µM: Homo sapiens, 12 h, normalized ATP measurement; for Assay 4: H2O2- & Cd-resistant / Assay 2: Cadmium-resistant: YES/NO; for Assay 2: Cadmium-resistant: * indicates partial
In short: (§1)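 WI-38 cells were given compounds at five final concentrations (0.25–20 μM) in triplicate, followed by cadmium or MMS for 12 h. For MMS, medium was switched from OptiMEM+10% FBS to serum-free DMEM+2% BSA when compounds were added, 24 h before stressor. Two independent assays were run, analysed by global variance t-test.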

WI-38 cells [3] = assay: MMS resistance assay; assay type: cell-based, human; conditions: for fold induction at 10 µM: Homo sapiens, 12 h, normalized ATP measurement
In short: as §1

[4] = tested on: human dermal fibroblast (HDF) primary cells; assay: H2O2-resistance in primary human dermal fibroblasts; assay type: cell-based; conditions: for fold induction at 10 µM: Homo sapiens; for Assay 6: H2O2-resistant, at 10 uM, human dermal fibroblast (HDF) primary cells: YES/NO
C. elegans = assay type: in vivo, Caenorhabditis elegans
In short: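 Worms treated in liquid with compounds in 96-well plates (4 wells each, FUdR to block progeny, 0.2% DMSO controls); H2O2 at 500 μM final added on day 4 of adulthood and viability scored daily.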

WI-38 cells [5] = assay: Long-term effects on cell viability (5 days, ATP; morphology, PI imaging); assay type: cell-based; conditions: 10 μM; for Luminescence signal for ATP measurement, day-1 Average / Luminescence signal for ATP measurement, day-2 Average / Luminescence signal for ATP measurement, day-3 Average / Luminescence signal for ATP measurement, day-4 Average / Luminescence signal for ATP measurement, day-5 Average / viability at 10 µM: Batch 1; for Luminescence signal for ATP measurement, day-1 Average / Luminescence signal for ATP measurement, day-2 Average / Luminescence signal for ATP measurement, day-3 Average / Luminescence signal for ATP measurement, day-4 Average / Luminescence signal for ATP measurement, day-5 Average: n = 6, day-0 luminescence = 320956 ± 24708; for viability at 10 µM: Homo sapiens, WI-38, 120 h, DMSO ctrl = 100.0%, read-out: ATP luminescence by day-5 normalized; for Luminescence signal for ATP measurement, day-5 Average / viability at 10 µM: day-5;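 as to Luminescence signal for ATP measurement, day-2 Average: compounds at 10 µM with ATP read daily over 5 days of treatment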;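 as to Luminescence signal for ATP measurement, day-3 Average: compounds at 10 µM with ATP read daily over 5 days of treatment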;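 as to Luminescence signal for ATP measurement, day-4 Average: compounds at 10 µM with ATP read daily over 5 days of treatment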;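 as to Luminescence signal for ATP measurement, day-5 Average: compounds at 10 µM with ATP read daily over 5 days of treatment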
[6] = Summary score for characterization of 38 core set hits; conditions: for D = Triple resistant: 2-point score, multiplex resistance (cadmium, MMS, H2O2); for C = H2O2- & Cd-resistant: score, resistance to both H2O2 and cadmium
In short: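 Composite score across characterizations of hits from an H2O2-resistance screen. Multiplex resistance, FOXO3/NRF2 activation and mTOR down-regulation each earn 2 points. C. elegans lifespan extension over 4–6 trials scores 0–2, and DNA damage or toxicity in human cells subtracts a point.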

[7] = H2O2 3 hrs, 10 uM, n = 6, negative control 5.44% ± 0.79%, read-out: Percentage of propidium iodide-positive dead cells (under H2O2 stress treatment), 3 hrs
[8] = H2O2 4 hrs, 10 uM, n = 6, negative control 16.81% ± 1.42%, read-out: Percentage of propidium iodide-positive dead cells (under H2O2 stress treatment), 4 hrs
[9] = pre-treatment at 10 uM, 3.5 hours of H2O2, DMSO control 27.4% ± 6.5%, */**/*** = reduced by one/two/three standard deviations, read-out: Percentage of propidium iodide-positive dead cells (under H2O2 stress treatment), at 10 uM
[10] = Exp. 1, WI-38 cells, read-out: Exp. 1, under Cd2Cl2 stress treatment, at 10 uM (fold change)
[11] = Exp. 2, WI-38 cells, read-out: Exp. 2, under Cd2Cl2 stress treatment, at 10 uM (fold change)
[12] = score in summary of 38 core set hits
[13] = Exp. 1, WI-38 cells, read-out: Exp. 1, under MMS stress treatment, at 10 uM (fold change)
[14] = Exp. 2, WI-38 cells, read-out: Exp. 2, under MMS stress treatment, at 10 uM (fold change)
[15] = Experiment 1, HDF cells, read-out: Experiment 1, HDF cells (under H2O2 stress treatment), at 10 uM (fold change)
[16] = Experiment 2, HDF cells, read-out: Experiment 2, HDF cells (under H2O2 stress treatment), at 10 uM (fold change)

SMILES	Assay 7: H2O2-resistant, at 10 uM, validated by propidium iodide (PI) cell-death imaging (WI-38 cells [1]; 10 uM)	cytotoxicity at 10 µM (WI-38 cells [1]; [9]) [%]	fold induction at 10 µM (WI-38 cells [2]; [10])	fold induction at 10 µM (WI-38 cells [2]; [11])	A = Cadmium resistant (WI-38 cells [2]; [12])	A = Cadmium resistant (WI-38 cells [2]; summary score)	C = H2O2- & Cd-resistant (WI-38 cells [2]; summary score)	fold induction at 10 µM (WI-38 cells [3]; [13])	fold induction at 10 µM (WI-38 cells [3]; [14])	B = MMS resistant (WI-38 cells [3]; [12])	B = MMS resistant (WI-38 cells [3]; summary score)	D = Triple resistant (WI-38 cells [3]; summary score)	Assay 6: H2O2-resistant, at 10 uM, human dermal fibroblast (HDF) primary cells [4]	Luminescence signal for ATP measurement, day-1 Average (WI-38 cells [5])	Luminescence signal for ATP measurement, day-2 Average (WI-38 cells [5])	Luminescence signal for ATP measurement, day-3 Average (WI-38 cells [5])	Luminescence signal for ATP measurement, day-4 Average (WI-38 cells [5])	Luminescence signal for ATP measurement, day-5 Average (WI-38 cells [5])	viability at 10 µM (WI-38 cells [5]) [%]	O = Potential toxicity (WI-38 cells [5]; human, 5 days)	further results
COc1ccc(C(=O)/C=C/c2cccc(Cl)c2)c(OC)c1 [Gr-4C]	YES	17.4	1.07	1.19	0	1	1	1.24	1.61	0	1	2	YES	413360	474171	485641	769380	813018	79.2	0	cytotoxicity at 10 µM (WI-38 cells [1]; [7]): 4.02%; cytotoxicity at 10 µM (WI-38 cells [1]; [8]): 6.21%; Assay 4: H2O2- & Cd-resistant (WI-38 cells [2]): YES; Assay 2: Cadmium-resistant (WI-38 cells [2]): YES; Assay 3: MMS-resistant (WI-38 cells [3]; YES/NO, * indicates partial): YES; Assay 5: Triple resistant (WI-38 cells [3]; YES/NO, H2O2, cadmium and MMS): YES; fold induction at 10 µM [4, 15]: 4.32; fold induction at 10 µM [4, 16]: 3.15; N = H2O2-resistance in woms (C. elegans; score): 0; L = H2O2-resistance in worms (C. elegans; summary score): 0; Q = Potential toxicity (WI-38 cells [5]; human, 5 days): 0; D = Triple resistant [6]: 0; C = H2O2- & Cd-resistant [6]: 0; S = Sum of Negative scores ([6]; sum of columns Q and R): 0
O=C(Nc1ccc(Cl)c(Cl)c1)c1ccc([N+](=O)[O-])o1 [Gr-1G]	YES	34.4	3.81	7.21	1	1	1	1.32	1.89	0	0	0	YES	449436	530748	651695	866631	955703	93.1	1	CdCl2-resistant (WI-38 cells [2]): YES; H2O2- & CdCl2-resistant (WI-38 cells [2]): YES; CdCl2-resistant (WI-38 cells [2]; WI-38 cells, 10 μM): YES; H2O2- & CdCl2-resistant (WI-38 cells [2]; WI-38 cells, 10 μM, both stressors): YES; Assay 4: H2O2- & Cd-resistant (WI-38 cells [2]): YES; Assay 2: Cadmium-resistant (WI-38 cells [2]): YES; L = H2O2-resistance in worms (C. elegans; in vivo): 0; N = H2O2-resistance in woms (C. elegans; in vivo): 0; Q = Potential toxicity (WI-38 cells [5]; human, 5 days): 0; D = Triple resistant [6]: 0; S = Sum of Negative scores ([6]; human): 1; C = H2O2- & Cd-resistant [6]: 1
O=C(NCc1cccnc1)/C(=C\c1ccc(Br)cc1)S(=O)(=O)c1ccccc1 [Gr-7B]	YES	4.7	0.12	0.26	0	1	1	0.39	1.45	0	0	0	YES	311883	56498	40001	44298	40768	4	1	cytotoxicity at 10 µM (WI-38 cells [1]; [7]): 5.88%; cytotoxicity at 10 µM (WI-38 cells [1]; [8]): 6.44%; Assay 4: H2O2- & Cd-resistant (WI-38 cells [2]): YES; Assay 2: Cadmium-resistant (WI-38 cells [2]): YES; fold induction at 10 µM [4, 15]: 3.71; fold induction at 10 µM [4, 16]: 3.35; H2O2-resistance assay, 1st experiment (C. elegans; in vivo): YES;; L = H2O2-resistance in worms (C. elegans; in vivo): 0; N = H2O2-resistance in woms (C. elegans; in vivo): 0; Q = Potential toxicity (WI-38 cells [5]; human, 5 days): 1; Reduction of ATP content after 5 days of continuous incubation (WI-38 cells [5]; human, 5 days): more than 40%; D = Triple resistant [6]: 0; S = Sum of Negative scores ([6]; human): 1; C = H2O2- & Cd-resistant [6]: 0
CCc1ccc(Oc2nc3ccccn3c(=O)c2/C=C(\C#N)C(=O)NCc2ccco2)cc1 [Gr-5B]	YES	6.1	1.29	1.36	0	0	0	1.13	1.36	0	0	0	YES	529430	736318	867160	1091073	1104305	108	0	cytotoxicity at 10 µM (WI-38 cells [1]; [7]): 1.18%; cytotoxicity at 10 µM (WI-38 cells [1]; [8]): 6.19%; fold induction at 10 µM [4, 15]: 9.16; fold induction at 10 µM [4, 16]: 13.3; L = H2O2-resistance in worms (C. elegans; in vivo): 0; N = H2O2-resistance in woms (C. elegans; in vivo): 0; Q = Potential toxicity (WI-38 cells [5]; human, 5 days): 0; D = Triple resistant [6]: 0; S = Sum of Negative scores ([6]; human): 0; C = H2O2- & Cd-resistant [6]: 0
